The values below come from patent US20050165029A1, “Pyrrolopyrimidine derivatives and analogs and their use in the treatment and prevention of diseases” (Ambit Biosciences Corporation, priority 2004, published 2005).

Broadly, the Kd is the free concentration of one partner at which half of the binding sites on the other are occupied at equilibrium, for simple one-to-one binding.

The target in one test is T1, PLK 4 (Homo sapiens, UniProt O00444).
T1 construct: made in house; host or cells: T7 bacteriophage display
T1 sequence (O00444 1-970): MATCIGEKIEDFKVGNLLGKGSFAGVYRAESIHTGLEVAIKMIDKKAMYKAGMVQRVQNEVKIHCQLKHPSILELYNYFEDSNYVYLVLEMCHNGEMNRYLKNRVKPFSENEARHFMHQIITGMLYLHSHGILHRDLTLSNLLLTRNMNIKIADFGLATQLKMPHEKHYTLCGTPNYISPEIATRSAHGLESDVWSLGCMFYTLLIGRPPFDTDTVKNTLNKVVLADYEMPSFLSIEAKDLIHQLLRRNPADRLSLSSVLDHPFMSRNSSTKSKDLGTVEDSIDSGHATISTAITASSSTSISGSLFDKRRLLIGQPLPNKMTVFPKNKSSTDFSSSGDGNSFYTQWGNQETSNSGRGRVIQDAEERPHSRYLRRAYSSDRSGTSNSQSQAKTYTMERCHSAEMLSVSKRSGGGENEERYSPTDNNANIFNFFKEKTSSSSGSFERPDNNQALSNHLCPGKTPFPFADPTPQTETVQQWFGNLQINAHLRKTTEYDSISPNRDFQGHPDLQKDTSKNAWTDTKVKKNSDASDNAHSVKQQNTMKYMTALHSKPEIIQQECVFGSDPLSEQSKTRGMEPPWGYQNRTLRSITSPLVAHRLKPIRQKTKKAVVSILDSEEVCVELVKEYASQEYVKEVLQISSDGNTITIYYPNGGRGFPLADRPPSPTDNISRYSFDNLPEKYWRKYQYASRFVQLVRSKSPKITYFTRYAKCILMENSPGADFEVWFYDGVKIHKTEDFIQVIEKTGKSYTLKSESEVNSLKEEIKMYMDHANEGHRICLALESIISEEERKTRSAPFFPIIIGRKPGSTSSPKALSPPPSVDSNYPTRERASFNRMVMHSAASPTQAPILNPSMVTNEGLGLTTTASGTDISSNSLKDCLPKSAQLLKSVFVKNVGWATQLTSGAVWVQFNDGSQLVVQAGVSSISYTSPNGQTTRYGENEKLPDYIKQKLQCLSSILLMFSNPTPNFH
The test is described as follows: PLK 4 (SKIN) Binding Assay. An excerpt:
(§1) Methods for measuring binding affinities for interactions between small molecules and kinases including FLT3, c-KIT, ABL(T334I) [a.k.a. ABL(T315I)], VEGFR-2 (a.k.a. KDR), and EGFR are described in detail in U.S. application Ser. No. 10/873,835, which is incorporated by reference herein in its entirety. The components of the assays include human kinases expressed as fusions to T7 bacteriophage particles and immobilized ligands that bind to the ATP site of the kinases. […] If the test compound binds the kinase it competes with the immobilized ligand and prevents binding to the solid support. […] The results are read out by quantitating the amount of fusion protein bound to the solid support, which is accomplished by either traditional phage plaque assays or by quantitative PCR (qPCR) using the phage genome as a template. […] The concentration of test molecule that reduces the number of phage bound to the solid support by 50% is equal to the Kd for the interaction between the kinase and the test molecule. Typically, data are collected for twelve concentrations of test compound and, the resultant binding curve is fit to a non-cooperative binding isotherm to calculate Kd.
(§2) Described in the exemplary assays below is data from binding with varying kinases. […] The term “ND” represents non-determined values.

The target in the next test is T2, MARK2 (Homo sapiens, UniProt Q7KZI7).
T2 construct: made in house; host or cells: T7 bacteriophage display
T2 sequence (Q7KZI7 whole entry): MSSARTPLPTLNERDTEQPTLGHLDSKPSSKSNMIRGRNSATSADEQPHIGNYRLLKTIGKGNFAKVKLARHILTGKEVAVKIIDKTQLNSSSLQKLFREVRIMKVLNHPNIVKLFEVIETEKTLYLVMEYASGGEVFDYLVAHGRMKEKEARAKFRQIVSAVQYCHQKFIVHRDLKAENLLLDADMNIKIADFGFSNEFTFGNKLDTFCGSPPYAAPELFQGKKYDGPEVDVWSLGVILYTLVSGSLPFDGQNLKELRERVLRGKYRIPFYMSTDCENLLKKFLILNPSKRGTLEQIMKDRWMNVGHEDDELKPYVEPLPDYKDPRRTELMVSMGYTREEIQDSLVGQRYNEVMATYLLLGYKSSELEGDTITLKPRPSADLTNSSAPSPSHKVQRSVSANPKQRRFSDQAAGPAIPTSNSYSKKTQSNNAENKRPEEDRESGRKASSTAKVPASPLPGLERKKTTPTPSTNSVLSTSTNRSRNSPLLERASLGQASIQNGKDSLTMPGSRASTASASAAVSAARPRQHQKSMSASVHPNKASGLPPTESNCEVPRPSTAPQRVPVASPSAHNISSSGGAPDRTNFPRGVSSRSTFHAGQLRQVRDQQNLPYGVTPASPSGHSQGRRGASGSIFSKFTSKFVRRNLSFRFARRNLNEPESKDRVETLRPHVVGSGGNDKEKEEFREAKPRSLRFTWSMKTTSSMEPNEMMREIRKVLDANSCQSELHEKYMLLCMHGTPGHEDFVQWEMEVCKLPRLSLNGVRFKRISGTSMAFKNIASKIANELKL
The test is described as follows: MARK2 (SKIN) Binding Assay.
From the text: as §1, §2

For another test, the target named is T3, ABL2 (Homo sapiens, UniProt P42684).
T3 construct: made in house; host or cells: T7 bacteriophage display
T3 sequence (P42684 whole entry): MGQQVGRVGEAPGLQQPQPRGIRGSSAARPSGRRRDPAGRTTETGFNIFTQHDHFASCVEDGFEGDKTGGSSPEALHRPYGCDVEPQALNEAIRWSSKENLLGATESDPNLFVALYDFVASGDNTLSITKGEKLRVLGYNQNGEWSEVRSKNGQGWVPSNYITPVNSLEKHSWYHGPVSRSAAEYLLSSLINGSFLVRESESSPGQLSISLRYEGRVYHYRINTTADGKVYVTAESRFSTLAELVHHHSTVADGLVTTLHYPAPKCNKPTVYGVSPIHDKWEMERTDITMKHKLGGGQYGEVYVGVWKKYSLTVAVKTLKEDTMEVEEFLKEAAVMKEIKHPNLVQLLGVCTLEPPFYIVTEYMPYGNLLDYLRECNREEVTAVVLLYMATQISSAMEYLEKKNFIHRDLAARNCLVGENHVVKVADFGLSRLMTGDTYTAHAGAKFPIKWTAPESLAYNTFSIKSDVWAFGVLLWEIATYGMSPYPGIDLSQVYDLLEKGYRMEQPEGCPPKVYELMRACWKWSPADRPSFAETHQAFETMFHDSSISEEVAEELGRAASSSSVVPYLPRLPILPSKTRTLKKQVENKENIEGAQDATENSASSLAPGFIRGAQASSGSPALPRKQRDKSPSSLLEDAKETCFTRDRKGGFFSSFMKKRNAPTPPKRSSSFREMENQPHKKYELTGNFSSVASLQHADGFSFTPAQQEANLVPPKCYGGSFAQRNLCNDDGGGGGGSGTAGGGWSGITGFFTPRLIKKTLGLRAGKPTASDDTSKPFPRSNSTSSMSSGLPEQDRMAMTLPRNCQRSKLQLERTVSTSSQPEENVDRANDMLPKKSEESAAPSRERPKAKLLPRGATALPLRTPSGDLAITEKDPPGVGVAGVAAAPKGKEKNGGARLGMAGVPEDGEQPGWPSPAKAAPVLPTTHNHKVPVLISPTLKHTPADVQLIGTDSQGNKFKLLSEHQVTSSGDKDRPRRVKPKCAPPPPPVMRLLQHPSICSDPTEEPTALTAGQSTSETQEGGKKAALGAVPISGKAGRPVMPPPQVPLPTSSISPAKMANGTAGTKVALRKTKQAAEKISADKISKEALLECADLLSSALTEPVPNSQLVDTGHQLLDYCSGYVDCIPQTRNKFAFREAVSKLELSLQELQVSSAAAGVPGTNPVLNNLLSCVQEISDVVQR
Briefly: ABL2 (DKIN) binding assay.
From the text: as §1, §2

Another test addresses T4, TNIK (Homo sapiens, UniProt Q9UKE5).
T4 construct: made in house; host or cells: T7 bacteriophage display
Briefly: TNIK (DKIN) Binding Assay.
From the text: as §1, §2

T4 sequence (Q9UKE5 whole entry): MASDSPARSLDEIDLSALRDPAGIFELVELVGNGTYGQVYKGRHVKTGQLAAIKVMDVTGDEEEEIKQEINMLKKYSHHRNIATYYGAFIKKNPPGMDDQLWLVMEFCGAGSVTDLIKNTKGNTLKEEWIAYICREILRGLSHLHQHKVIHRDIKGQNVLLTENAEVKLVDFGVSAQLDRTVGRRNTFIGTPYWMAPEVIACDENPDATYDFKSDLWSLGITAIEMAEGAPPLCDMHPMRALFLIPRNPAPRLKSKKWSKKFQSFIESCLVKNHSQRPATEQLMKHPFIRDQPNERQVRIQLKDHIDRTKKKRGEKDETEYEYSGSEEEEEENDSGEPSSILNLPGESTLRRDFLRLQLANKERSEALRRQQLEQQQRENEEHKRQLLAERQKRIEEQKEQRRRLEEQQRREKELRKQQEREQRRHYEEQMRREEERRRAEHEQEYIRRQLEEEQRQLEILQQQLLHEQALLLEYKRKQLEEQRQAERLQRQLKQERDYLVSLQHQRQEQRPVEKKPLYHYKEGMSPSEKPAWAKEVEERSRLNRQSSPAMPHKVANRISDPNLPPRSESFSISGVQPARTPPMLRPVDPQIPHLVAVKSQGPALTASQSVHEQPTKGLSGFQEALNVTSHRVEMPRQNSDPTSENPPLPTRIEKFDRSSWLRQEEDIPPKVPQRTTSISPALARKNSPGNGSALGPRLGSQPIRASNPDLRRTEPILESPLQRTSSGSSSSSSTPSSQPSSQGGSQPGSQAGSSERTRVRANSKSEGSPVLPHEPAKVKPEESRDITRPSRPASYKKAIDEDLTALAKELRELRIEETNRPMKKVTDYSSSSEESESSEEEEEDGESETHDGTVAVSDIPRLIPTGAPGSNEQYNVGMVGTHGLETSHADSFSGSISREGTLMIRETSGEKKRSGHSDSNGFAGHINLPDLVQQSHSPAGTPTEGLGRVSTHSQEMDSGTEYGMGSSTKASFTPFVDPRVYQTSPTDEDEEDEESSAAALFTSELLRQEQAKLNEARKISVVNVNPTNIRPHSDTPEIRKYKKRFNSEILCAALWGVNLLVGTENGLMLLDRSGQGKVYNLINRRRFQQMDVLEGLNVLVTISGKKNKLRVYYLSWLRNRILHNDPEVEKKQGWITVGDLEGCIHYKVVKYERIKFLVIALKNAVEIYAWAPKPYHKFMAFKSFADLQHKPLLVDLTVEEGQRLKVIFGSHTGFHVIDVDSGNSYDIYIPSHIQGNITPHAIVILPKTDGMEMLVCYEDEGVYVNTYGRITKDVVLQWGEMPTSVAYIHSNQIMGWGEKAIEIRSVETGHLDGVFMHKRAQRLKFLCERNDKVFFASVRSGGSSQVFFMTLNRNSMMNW

In the case of `Oc1ccc(-c2cc3c(Sc4cccc(Cl)c4)ncnc3[nH]2)cc1` [Compound L2], the Kd on PLK 4 is more than 10 µM; at MARK2 it was more than 10 µM; at ABL2, 1 to 10 µM; on TNIK, less than 0.1 µM.
